Data from publication PMC7083851, “Extended pharmacodynamic responses observed upon PROTAC-mediated degradation of RIPK2” (Communications Biology, 2020).
Where “and” joins values, the source holds several entries; their conditions need not be identical. Equal entries are not always repeated.

Assays:
RIPK2 = RIPK2 (Homo sapiens, UniProt O43353); test: RIPK2 degradation in human PBMCs (immunoassay); assay type: cell-based; parameters: endogenous in cells; host or cells: primary human PBMCs from leukodepletion filters (NHSBT); conditions: 24 h
Description: PBMCs were isolated from leukodepletion filter from platelet aphaeresis supplied by National Health System Blood and Transplant—NHSBT Apheresed at NHBST.
Before treatment with compound or vehicle, THP1 cells, human and rat PBMCs were counted using Vi-Cell cell counter (Invitrogen) and adjusted to a final cell density of […] using complete growth medium. Cells or whole blood were treated with vehicle (0.1% DMSO) or fixed concentrations of compound up to 1 μM in half log unit increments and incubated for the time period indicated in the figure.
Where the assessment of cytokines was performed, L18-MDP was added to the cell culture media (1 μg/ml) or to the rat blood samples (100 ng/ml) and samples were incubated for up to 4 h. […] Samples were them spun down at 1000 g and the cell culture supernatant, plasma or serum were collected for cytokines assessment, while cell pellets were used for RIPK2 and/or cIAP1, cIAP2, and XIAP levels analysis via immunoblotting.
Simple Western immunoassay: Cell lysates were mixed with 5× concentrated master mix (Protein Simple) and denatured at 95 °C on a heat block for 5 min together with the provided ladder (Protein Simple). Antibodies were diluted in the provided buffer as following: anti-RIPK2 (1:10 or 1:50), anti-cIAP1(1:10), anti-cIAP2 (1:10), anti-XIAP (1:10), mouse anti-β-actin (Abcam - 1:1000), rabbit anti-β-actin (Abcam - 1:50) and anti-vinculin (1:100). All reagents (blocking buffer, primary and secondary antibodies, streptavadin, luminol/peroxide, separation matrix, stacking matrix and water) were added to the Protein Simple plate containing the ladder and lysates and the plate was placed in a Protein Simple Western instrument and the Simple Western default size assay protocol was used. […] The area under the peak values obtained for RIPK2, cIAP1, cIAP2 or XIAP were normalized relative to the control protein values.
In vitro experimental data were analyzed using a 4-parameter logistic equation in GraphPad Prism 5.0.4. to generate an estimate of the half-maximal concentration and maximal degradation, DC50 and Dmax value respectively, for concentration-degradation relationships. Cytokine levels were analyzed in a similar manner to yield IC50 and Imax values. […] Where analysis to a sigmoidal relationship was not possible, the data points are shown as mean ± s.e.m.

Hepatocyte CLint, human = assay type: in vitro ADME; conditions: human liver hepatocytes
Description: Metabolic stability was performed at Cyprotex (UK). Pooled liver microsomes / cryopreserved pooled hepatocytes were purchased from a commercial supplier (BD Biosciences or Corning/InVitro Technologies).
The final incubation volume was 500 µL. An appropriate vehicle control was used. Each compound was incubated for 0, 5, 10, 20, 40, and 60 min. The control (vehicle) was incubated for 60 min.
All incubations were terminated by transferring 50 μL of incubate to 100 μL of acetonitrile containing internal standard at the appropriate time points. The termination plates were centrifuged at 2500 rpm for 20–30min at 4 °C to precipitate the protein. Following protein precipitation, samples were analysed using quantitative LC-MS/MS.

[1] = High-throughput precipitation solubility, chemiluminescent nitrogen-specific detection (CLND); assay type: physicochemical; conditions: high-throughput
[2] = tested on: L18-MDP-induced cytokine release; test: In vivo L18-MDP acute inflammation model, spleen cytokines; parameters: species or system rat; cytokine level (fig 6d) / cytokine level (fig 6e) / cytokine level (fig 6f): unit not given here; conditions: for cytokine level (fig 6e) / cytokine level (fig 6f) / cytokine level (fig 6d): spleen, individual rats, beside L18-MDP control
Description: In vivo L18-MDP administration to rodents results in an acute inflammatory response characterised by the rapid production of inflammatory cytokines. […]. […]. Blood concentrations of 6 and 7 tracked closely and dropped below the LLQ after 24 h.
. Cytokine levels were determined in serum generated from the terminal blood samples and in tissue lysates as detailed below.
Cytokine measurement assay: Cytokine levels were measured in rat plasma or rat PBMCs cell culture supernatants using rat V-Plex TNFα, in human plasma or human PBMCs cell culture supernatants with either TNFα tissue culture or 7-plex kit. Rat serum and tissues samples from the in vivo L18-MDP acute inflammation model were analyzed using the rat TNFα, Il-6 and IL-8 U-Plex kits. All kits provided by Meso Scale Discovery (MSD). Levels of cytokines spontaneously released from human colon biopsies cell culture supernatants were measured using Human IL-1 beta/IL-1F2 DuoSet ELISA (Bio-techne), Human IL-6 ELISA (Immunotools) and Human TNF-alpha DuoSet ELISA (Bio-techne). All samples were processed accordingly to the manufacturer’s instructions. The MSD plates were analyzed using the MSD sector imager 6000 plate reader and cytokines concentration (pg/ml) was obtained by using the MSD DISCOVERY WORKBENCH software version 4.0.12.1
For in vivo studies, RIPK2:tubulin ratios and cytokine levels from each individual experiment were analysed either using a One-way ANOVA with Dunnet’s post-test or a two way ANOVA using GraphPad Prism 5.0.4 to determine statistical significance with 95% confidence levels.

RIPK2, sequence (O43353 whole entry): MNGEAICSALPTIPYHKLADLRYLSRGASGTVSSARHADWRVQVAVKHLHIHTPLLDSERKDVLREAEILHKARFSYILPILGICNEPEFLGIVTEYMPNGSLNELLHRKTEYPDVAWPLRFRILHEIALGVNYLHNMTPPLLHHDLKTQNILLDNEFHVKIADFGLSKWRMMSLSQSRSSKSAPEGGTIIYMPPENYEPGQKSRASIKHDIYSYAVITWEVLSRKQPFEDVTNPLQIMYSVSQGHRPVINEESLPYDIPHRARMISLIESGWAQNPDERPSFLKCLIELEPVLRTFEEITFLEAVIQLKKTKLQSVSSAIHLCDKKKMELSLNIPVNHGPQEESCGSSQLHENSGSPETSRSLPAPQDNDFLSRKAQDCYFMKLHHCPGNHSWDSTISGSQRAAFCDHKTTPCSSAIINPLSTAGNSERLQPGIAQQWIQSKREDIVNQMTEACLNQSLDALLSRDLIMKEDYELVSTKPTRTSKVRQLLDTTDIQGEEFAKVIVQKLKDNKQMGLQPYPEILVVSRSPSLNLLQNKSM

## CN[C@@H](C)C(=O)N[C@H](C(=O)N1CCC[C@H]1c1nc(C(=O)c2ccc(F)cc2)cs1)C1CCN(C(=O)c2cnc(N3CCN(CCOc4cc5ncnc(Nc6n[nH]c(C)c6C)c5cc4S(=O)(=O)C(C)(C)C)CC3)nc2)CC1 [PROTAC 4]
RIPK2; RIPK2 degradation
  hPBMC pDC50 ± SEM, 24 h (n = 3): 7.9 ± 0.2
RIPK2; maximal RIPK2 degradation
  hPBMC Dmax ± SEM, 24 h (n = 3): 69.2 ± 11.5%
Hepatocyte CLint, human
  clearance in hepatocytes: < 0.45 mL/min/g liver
[1]
  solubility: > 311 µM

## CN[C@@H](C)C(=O)N[C@H](C(=O)N1C[C@@H](NC(=O)c2cnc(N3CCN(CCCOc4cc5ncnc(Nc6n[nH]c(C)c6C)c5cc4S(=O)(=O)C(C)(C)C)CC3)cn2)C[C@H]1C(=O)Nc1c(F)cccc1F)C(C)(C)C [PROTAC 6]
[2]; rat, 0.3 mg/kg SC, intravenous L18-MDP challenge
  inhibition of TNFα and IL-8 in spleen, in words: short-lived and returned to basal levels by the third day post-dose
[2]; time 6 h
  cytokine level (fig 6e): 14.13 and 34.14 and 14.02 and 19.73 and 14.97
  cytokine level (fig 6f): 4.45 and 4.35 and 4.34 and 3.21 and 3.53
  cytokine level (fig 6d): 2.77 (2×) and 3.58 and 3.26 and 3.28
[2]; time 24 h
  cytokine level (fig 6e): 45.7 and 38.46 and 58.3 and 40.91 and 52.98
  cytokine level (fig 6f): 4.32 and 2.78 and 5.01 and 2.54 and 9.72
  cytokine level (fig 6d): 4.43 and 2.62 and 4.18 and 4.64 and 5.01
[2]; time 72 h
  cytokine level (fig 6e): 111.22 and 59.85 and 73.1 and 99 and 52.1
  cytokine level (fig 6f): 75.27 and 51.34 and 57.62 and 94.65 and 61.7
  cytokine level (fig 6d): 45 and 42.87 and 29.6 and 47.75 and 33.69
[2]; time 240 h
  cytokine level (fig 6e): 97.65 and 76.46 and 96.01 and 80.21 and 59.48
  cytokine level (fig 6f): 72.27 and 99.15 and 93.27 and 64.45 and 48.45
  cytokine level (fig 6d): 65.15 and 73.34 and 58.46 and 1.72 and 47.46
[2]; time 408 h
  cytokine level (fig 6e): 146.67 and 133.23 and 180.63 and 211.01 and 68.17
  cytokine level (fig 6f): 79.92 and 69.55 and 103.81 and 98.05 and 47.92
  cytokine level (fig 6d): 41.62 and 64.64 and 76.25 and 77.33 and 37.06
